What was measured:
[1] = Intraocular pharmacokinetic tests by fluorophotometry in rabbits after injection into the vitreous body; format: in vivo, white rabbits; settings: rabbit, intravitreous injection
Method: Intraocular pharmacokinetic tests by fluorophotometry in rabbits It is difficult in terms of measurement techniques to actually trace transfer of slight amounts of tissues using the drug-PEG conjugate prepared above. Accordingly, fluorescein, which has fluorescence and can be measured with high sensitivity, was used as a model drug, a fluorescein-PEG conjugate (hereinafter referred to as “FL-PEG”) was synthesized, and intraocular pharmacokinetics tests were performed. Fluorescein sodium (hereinafter referred to as “FL”) was used as a comparative substance.
A 2.6% sterilized glycerin solution (10 ml) was added to FL-PEG (18 mg), and this liquid was stirred to dissolve FL-PEG to prepare an injection. A 10 μg/ml injection containing FL was prepared in the similar manner.
1) A mixed solution containing an aqueous ketamine hydrochloride solution (50 mg/ml) and an aqueous xylazine hydrochloride (50 mg/ml) in a ratio of 7:3 was administered intramuscularly to white rabbits to anesthetize.
2) A tropicamide (0.5%)/phenylephrine hydrochloride (0.5%) ophthalmic solution was instilled into eyes to cause mydriasis in the eyes.
3) The eyes were anesthetized with an oxybuprocaine hydrochloride (0.5%) ophthalmic solution.
4) The above-mentioned FL-PEG or FL liquid preparation was injected into the center of a vitreous body of one eye from an ocular pars plana in an amount of […] respectively with a syringe equipped with a 30 G needle.
5) Intraocular fluorescence intensity was measured with a fluorophotometry apparatus with the laps of time immediately after the administration to the vitreous body and at 1, 2, 4, 7, 15, 18, 23, 28, 35, 42, 49 and 56 days. A calibration curves were prepared, changes in concentration in the vitreous body and a retina were determined. Next, respective half-lives were calculated from the changes in concentration by a moment method. The above-mentioned operation 2) was carried out before the intraocular fluorescence intensity was measured.
The numerical values in the table are the average of three samples respectively. The half-life of FL-PEG in the vitreous body was calculated using measured values on forth to 28th day. […] The half-life of FL in the vitreous body was calculated using measured values immediately after the administration and on first day after the administration.

[2] = tested on: krypton laser-induced choroidal neovascularization; assay: Effects of subconjunctivally administered betamethasone-PEG conjugate on krypton laser-induced choroidal neovascularization in rats; format: in vivo; settings: single subconjunctival injection 50 μl (BM-PEG 40 mg/ml, BP 2.8 mg/ml), 14th day after photocoagulation, vehicle 71.9%
Method: 1) A one ml/kg mixed solution containing an aqueous ketamine hydrochloride solution (50 mg/ml) and an aqueous xylazine hydrochloride solution (50 mg/ml) in a ratio of 7:1 was administered intramuscularly to rats to anesthetize them systemically.
2) A 0.5% tropicamide-0.5% phenylephrine hydrochloride solution was instilled into the eyes to cause mydriasis, and then photocoagulation was performed with a krypton laser photocoagulation apparatus (red) under coagulation conditions of spot size of 100 μm, output of 100 mW and coagulation time of 0.1 sec.
3) Cover glass for observing tissues was used as a contact lens, the photocoagulation was carried out in a posterior pole portion of ocular fundus at eight spots per eye sparsely avoiding thick retinal vessels. The photocoagulation was carried out focusing on the retinal posterior portion in order to cut a Bruch's membrane. After the photocoagulation, the ocular fundus was photographed. […]
6) In the fluorescein fundus angiography, a photocoagulation site where fluorescence diapedesis was not observed was judged as negative, and a photocoagulation site where apparent fluorescence diapedesis was observed was judged as positive. When there are two photocoagulation sites where a little fluorescence diapedesis was observed, they were judged as positive. Each neovascularization exhibition rate was calculated according to the following equation. […]

Structure (SMILES)	Half-life in vitreous body ([1]; fluorophotometry, moment method, average of three samples)	Detection in the retina (changes in concentration, FIG. 2) ([1]; followed for 56 days)	Detection in the vitreous body (changes in concentration, FIG. 1) ([1]; followed for 56 days)	half-life ([1]; white, vitreous body, other: injection into the vitreous body (intravitreal), 1 µg/eye, fluorophotometry, moment method, average of three samples)	Neovascularization exhibition rate (%) [2]
O=C1OC2(c3ccc(O)cc3Oc3cc(O)ccc32)c2ccccc21 [FL, Fluorescein sodium]	less than four	detected only on first day after the administration	not detected on second day after the administration or later	< 4 h	–
C[C@H]1C[C@H]2[C@@H]3CCC4=CC(=O)C=C[C@]4(C)[C@@]3(F)[C@@H](O)C[C@]2(C)[C@@]1(O)C(=O)COP(=O)(O)O [BP, Betamethasone phosphate]	–	–	–	–	50.0%
